Test results reported in patent publication US20010041801A1, “Water soluble fullerenes with antiviral activity” (The Regents of the University of California, priority 1994, published 2001).
Where “and” joins values, the source holds several entries; their conditions need not be identical. Identical values can stand only once. Entries after “also recorded” stand apart in the source; their conditions may differ. Like-named read-outs stand apart in the source and are kept apart here.

Legend:
pepsin = pepsin (Homo sapiens, UniProt P0DJD8); test: Pepsin inhibition assay; type: biochemical; conditions: 0.028 μM enzyme, 0.2 M sodium citrate pH 2.0, 37° C.; read-out: IC50 against pepsin
Chain of pepsin (P0DJD8 63-388): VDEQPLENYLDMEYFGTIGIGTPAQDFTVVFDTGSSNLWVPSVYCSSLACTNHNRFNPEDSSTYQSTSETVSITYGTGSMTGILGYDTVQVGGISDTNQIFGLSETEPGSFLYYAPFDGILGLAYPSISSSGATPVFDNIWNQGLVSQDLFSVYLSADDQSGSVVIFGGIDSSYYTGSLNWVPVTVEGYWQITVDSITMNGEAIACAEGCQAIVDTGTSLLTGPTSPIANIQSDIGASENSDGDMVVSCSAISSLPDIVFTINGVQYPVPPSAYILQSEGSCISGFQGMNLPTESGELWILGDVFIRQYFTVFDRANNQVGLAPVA
From the text: Compound 2c also has antiprotease activity. […] The method used for the assay was similar to that described by Ido, et al., J. Biol. Chem., 266:24359-24366, 1991).

HIV-1 RT = HIV-1 RT (Human immunodeficiency virus type 1 group M subtype B, UniProt P04585); test: Inhibition of recombinant p66/51 HIV-1 RT, poly(rA)n.oligo(T)12-18 template-primer; type: biochemical; conditions: IC50 Polymerases: HIV-1 RT, cell-free; AZT-5′-triphosphate used for AZT
Procedure: The compound was also evaluated for its inhibitory effect on recombinant p66/51 HIV-1 RT by using poly(rA)n.oligo(T)12-18 as the template-primer as described in Schinazi, et al. (1992, supra). Compound 2c was active against this enzyme, with a median inhibitory concentration (1C50) of 4.6 μM. This value was of the same order of magnitude as that noted for the antiviral assays (TABLE 3). […] AZT-5′ triphosphate and phosphonoformate (PFA), used as positive controls, were effective and selective against HIV-1 RT.

[1] = Cytotoxicity in CEM cells; type: cell-based; conditions: human, CEM cells; cell counts on day 6
CEM cells = test: Cytotoxicity in CEM cells; type: cell-based; conditions: b68: up to 100 μM
HIV-1 HI 12.2 = test: Susceptibility of pretherapy AZT-susceptible isolate in acutely infected PBMC; type: cell-based; conditions: Human immunodeficiency virus 1, PBMC, read-out: EC50 against pretherapy isolate
From the text: (§1) The availability of AZT-resistant and -susceptible viruses allowed us to evaluate the compounds of this invention for their susceptibilities to these viruses in acutely infected PBMC in two experiments. […] In the same assay, the EC50 for TIBO [(+)-(5s)-4,5,6,7-tetrahydro-5methyl-6-(3-methyl-2-butenyl)imidazo(4,5,1-jk)(1,4)benzodiazepin-2(1 H)-thione] R82150 increased >500-fold (data not shown).

HIV-1 protease (HIVP) = target: T1, HIV-1 protease (HIVP) (Human immunodeficiency virus type 1 group M subtype B, UniProt P04585); test: Inhibition of HIV-1 protease, HPLC assay with kinetic analysis; type: biochemical
T1 construct: HIV produces a small, dimeric aspartyl protease which specifically cleaves the polyprotein precursors
Procedure: The ability of compound 2c to inhibit the HIVP was assayed with an HPLC method as described in R. L DesJarlais, et al., Proc. Natl. Acad. Sci U.S.A., 87:6644-6648, 1990. […] Assays were performed in buffer containing 50 mM NaAc pH 5.5, 1.0 M NaCl, 5% glycerol, 1% DMSO, and 2 mM EDTA. Inhibitor was preincubated with ≈0.05 μg of enzyme for 5 minutes at which time the reaction was initiated by addition of substrate. The reaction was quenched at <15% product formation by the addition of 15 μL of 10% TFA. The cleavage products of the substrate peptide H-Lys-Ala-Arg-Val-Tyr-p-nitro-Phe-Glu-Ala-Ile-NH2 (made by Bachem, Philadelphia, Pa.) were assayed by HPLC using a 10-40% (acetonitrile, 0.1% TFA): (water, 0.1% TFA) gradient over 30 minutes at 1 mL/minute. Product was quantitated by integration of peak areas followed by comparison to product standard curves.
Determination of kinetic constants was done with the program KinetAsyst (IntelliKinetics) by fitting of the data to the equation […]] which describes competitive inhibition.

[2] = tested on: nevirapine (BI-RG587)-susceptible HIV-1; test: Susceptibility of nevirapine-susceptible HIV-1; type: cell-based; conditions: Human immunodeficiency virus 1, read-out: EC50 against nevirapine-susceptible HIV-1
HIV-1G910-6 = test: microbe, parasite or virus in culture; type: cell-based
From the text: as §1

HIV-1 = HIV-1 p24 antigen assay in supernatants of acutely infected PBMC; type: cell-based; conditions: Human immunodeficiency virus 1; PBMC acutely infected with HIV-1
Procedure: To determine whether the fullerene may bind tightly to inactivate the viral RT, we also measured levels of HIV-1 p24 in supernatants of treated and untreated cultures. Clarified supernatants were treated with Triton X-100 (Sigma Chemicals, St. Louis, Mo.) and tested for HIV-1 antigen by immunocapture with a commercial kit (Abbott, North Chicago, Ill.).

Solubility in water = conditions: pH≧7
HIV-1 and HIV-2 = test: Antiviral activity in acutely or chronically infected human lymphocytes (summary statements); type: cell-based
From the text: The water soluble C60 derivatives for inactivating HIV by interacting with HIV by Van der Waals contacts with the nonpolar HIVP surface, are substituted symmetrically with organic moieties comprising from 1 to about 20 carbon atoms each and optionally further comprising polar heteroatoms, such as oxygen and nitrogen. The preferred fullerene derivatives are diamino derivatives synthesized in three steps from C60 via a suitably substituted diphenyldiazomethane. High-resolution mass spectrometric analysis of these compounds is possible only under the mild conditions of matrix-assisted laser desorption/ionization Fourier transform mass spectrometry. Direct infrared or ultraviolet laser desorption degrades the compounds so that only C60 ions are observed, in either positive or negative mode. Virus inactivation assays are provided for confirming activity of the C60 derivatives against human immunodeficiency virus type 1 (HIV-1) and HIV-2. […] Inhibition of protease (HIVP) and reverse transcriptase (HIVRT) is also shown.
The therapeutic and prophylactic efficacy of the compounds of this invention has been shown by in vitro assays. […]

Compound: O=C(O)CCC(=O)NCCc1ccc(C2(c3ccc(CCNC(=O)CCC(=O)O)cc3)C34c5c6c7c8c9c%10c(c%11c%12c3c3c5c5c%13c6c6c7c7c9c9c%14c%10c%10c%11c%11c%12c%12c3c3c5c5c%13c%13c6c6c7c9c7c9c%14c%10c%10c%11c%11c%12c3c3c5c5c%13c6c7c6c9c%10c%11c3c56)C824)cc1 [Compound 2c, bis(monosuccinimide) derivative of p,p′-bis(2-aminoethyl)diphenyl-C60]
- IC50 (pepsin): 20 µM
- IC50 (HIV-1 RT): 4.6 µM and ~5 µM
- IC50 at 6 days [1]: > 100 µM
- cytotoxicity in CEM cells (CEM cells): No cytotoxicity; also recorded: noncytotoxic
- EC50 (HIV-1 HI 12.2): 2 to 8 µM
- Ki (HIV-1 protease (HIVP)): 5.3 µM
- mode of inhibition (HIV-1 protease (HIVP); kinetic analysis of HIVP): competitive
- EC50 [2]: 0.53 µM
- EC50 (HIV-1G910-6; Human immunodeficiency virus 1, PBMC, read-out: EC50 against AZT-resistant HIV-1, acutely infected PBMC / lymphocytes): 2.8 µM
- EC50 (HIV-1G910-6; read-out: EC50 against AZT-resistant HIV-1, acutely infected PBMC / lymphocytes): 3 µM
- EC50 (HIV-1): 50 µM
- solubility in water (Solubility in water): soluble
- EC50 (HIV-1 and HIV-2; Human immunodeficiency virus 1, H9, HIV-1, summary, read-out: EC50, acutely and chronically HIV-1 infected PBMC and chronically infected H9 cells): 7 µM
- EC50 (HIV-1 and HIV-2; Lymphocyte, average over assays, read-out: EC50 averaging, HIV-1 and HIV-2 in acute or chronically infected human lymphocytes): ~6 µM
